Assay results from patent US9253983B2, “Triazole compound and use thereof” (KUREHA CORPORATION, priority 2011, dated 2016).

Assays:
[1] = tested on: Puccinia recondita; assay: Efficacy of seed treatment on wheat brown rust; type: in vivo; conditions: wheat seed treatment 20 g ai/100 kg seeds, 12 days after inoculation
Experimental: A pot experiment was performed to evaluate the efficacy of seed treatment in controlling wheat leaf rust. Compound (1-1a) and Compound (1-2a), each of which was dissolved in DMSO to make up such a concentration that the seeds would be treated in treatment amount of 20 g ai/100 kg seeds, were each applied to wheat seeds in a vial, and thereafter 8 wheat seeds were sowed on an 80-cm^2 pot. The pot was kept in a greenhouse with water supplied to its bottom. 21 days after the sowing, the wheat seeds were inoculated with Puccinia recondita, and kept in a wet box for 2 days. After that, the pot was again kept in the greenhouse with water supplied to its bottom. 12 days after the inoculation, the percentage of affected area was found, and the protective value was calculated by the following equation. Protective value (%)=(1−(Percentage of affected area in treated region/Percentage of affected area in untreated region))×100

[2] = tested on: wheat; assay: Growth inhibition (adverse effects) of seed treatment on wheat seeds; type: in vivo; conditions: wheat, 20 days after sowing
Experimental: A pot experiment was performed to evaluate the growth inhibition (adverse effects) caused by the seed treatment. Compound (1-1a) and Compound (1-2a), each of which was dissolved in DMSO to make up such a concentration that the seeds would be treated in treatment amount of 2 g to 200 g ai/100 kg seeds, were each applied to wheat seeds in a vial, and thereafter 8 wheat seeds were sowed in an 80-cm^2 pot. The pot was kept in a greenhouse with water supplied to its bottom. 20 days after the sowing, a growth measure of wheat was evaluated. A growth inhibition index was calculated based on the criteria shown by Table 10. In Table 10, a smaller growth inhibition index indicates a lesser adverse effect of growth inhibition caused by the treatment with the use of a plant disease controlling agent.

[3] = tested on: wheat; assay: Necrosis (adverse effects) of seed treatment on wheat seeds; type: in vivo; conditions: 20 days after sowing
Experimental: A pot experiment was performed to evaluate necrosis (adverse effects) caused by the seed treatment. Compound (1-1a) and Compound (1-2a), each which was dissolved in DMSO to make up such a concentration that the seeds would be treated in treatment amount of 2 g to 200 g ai/100 kg seeds, were each applied to wheat seeds in a vial, and thereafter 8 wheat seeds were sowed in an 80-cm^2 pot. The pot was kept in a greenhouse with water supplied to its bottom. 20 days after the sowing, an extent of necrosis (percentage of necrotic surface area) of wheat was evaluated. A necrosis index was derived from the percentage of the necrotic surface area, based on the criteria shown by Table 13. In Table 13, a smaller necrosis index indicates a lesser adverse effect of necrosis caused by the treatment with the use of a plant disease controlling agent.

[4] = tested on: Gibberella fujikuroi; assay: Test 1 for antifungal effect, plate medium: G.f; type: cell-based; conditions: PDA plate medium
Experimental: (§1) Compound (1-1a) or Compound (1-2a) was dissolved in dimethyl sulfoxide, and the resulting solution was added to a PDA medium (potato dextrose-agar medium) at about 60° C. The medium and the solution were mixed thoroughly in a conical flask, poured into a petri dish, and allowed to solidify. In this way, a plate medium containing Compound (1-1a) or Compound (1-2a) at a certain concentration was prepared.
(§2) Meanwhile, test microorganisms cultured on a plate medium in advance were cut out with the use of a cork borer 4 mm in diameter, and were inoculated onto the compound-containing plate medium. After the inoculation, the microorganisms were cultured at their optimum growth temperatures (for example, refer to LIST OF CULTURES 1996 microorganisms 10th edition, Institute for Fermentation (foundation)) for 1 day to 7 days, and their growth was determined by measuring the diameter of their flora. The extent of growth of the microorganisms on the compound-containing plate medium was compared with that of microorganisms on a plate medium where no compound was added, and mycelial growth inhibition rate was calculated by the following equation: R=100(dc−dt)/dc where R is mycelial growth inhibition rate (%), dc is the flora diameter in untreated plate, and dt is the flora diameter in plate treated with the compound.
(§3) A larger antifungal index indicates a better antifungal effect.

[5] = tested on: Sclerotinia sclerotiorum; assay: Test 1 for antifungal effect, plate medium: S.s; type: cell-based; conditions: PDA plate medium
Experimental: as §1, §2, §3

[6] = tested on: Ustilago nuda; assay: Test 2 for antifungal effect, plate medium: U.n; type: cell-based; conditions: PDA plate medium
Experimental: as §1, with “(1-1b)” for “(1-1a)”, “(1-2b)” for “(1-2a)”
(§4) Meanwhile, test microorganisms cultured on a plate medium in advance were cut out with the use of a cork borer 4 mm in diameter, and were inoculated onto the compound-containing plate medium. After the inoculation, the pathogens were cultured at their optimum growth temperatures (for example, refer to LIST OF CULTURES 1996 microorganisms 10th edition, Institute for Fermentation (foundation)) for 1 day to 7 days, and their growth was determined by measuring the diameter of their flora. The extent of growth of the pathogens on the compound-containing plate medium was compared with that of pathogens on a plate medium where no compound was added, and mycelial growth inhibition rate was calculated as in Experiment Example 10. Note that, in Experiment Example 11, controls used in the antifungal effect tests are Compound (1-1a) and Compound (1-2a) instead of Compound (1-1b) and Compound (1-2b), respectively.
(§5) The results were rated on a 1-to-5 scale as in Experiment Example 10.

[7] = tested on: Fusarium oxysporum; assay: Test 2 for antifungal effect, plate medium: F.c; type: cell-based; conditions: PDA plate medium
Experimental: as §1, with “(1-1b)” for “(1-1a)”, “(1-2b)” for “(1-2a)”
as §4, §5

[8] = tested on: Penicillium italicum; assay: Test 2 for antifungal effect, plate medium: P.i; type: cell-based; conditions: PDA plate medium
Experimental: as §1, with “(1-1b)” for “(1-1a)”, “(1-2b)” for “(1-2a)”
as §4, §5

[9] = tested on: Septoria tritici; assay: Test 2 for antifungal effect, plate medium: S.t; type: cell-based; conditions: PDA plate medium
Experimental: as §1, with “(1-1b)” for “(1-1a)”, “(1-2b)” for “(1-2a)”
as §4, §5

[10] = treatment amount 2 g ai/100 kg seeds
[11] = treatment amount 20 g ai/100 kg seeds
[12] = treatment amount 200 g ai/100 kg seeds

CC1(CCl)CCC(Cc2ccc(Cl)cc2)C1(O)Cn1cncn1 (single isomer, unassigned) [Compound (1-1a), (1,2-cis, 1,5-cis)-5-(4-chlorobenzyl)-2-chloromethyl-2-methyl-1-(1H-1,2,4-triazole-1-ylmethyl)cyclopentanol]
Protective value (%) [1]: 90%
Growth inhibition index [2, 10]: 0 (50% or more)
Growth inhibition index [2, 11]: 0 (50% or more)
Growth inhibition index [2, 12]: 0 (50% or more)
Necrosis index [3, 10]: 0 (Less than 1%)
Necrosis index [3, 11]: 0 (Less than 1%)
Necrosis index [3, 12]: 0 (Less than 1%)
Antifungal index (mycelial growth inhibition rate) ([4]; 0.16 mg/L): 5 (90% or greater)
Antifungal index (mycelial growth inhibition rate) ([4]; 0.31 mg/L): 5 (90% or greater)
Antifungal index (mycelial growth inhibition rate) ([4]; 0.63 mg/L): 5 (90% or greater)
Antifungal index (mycelial growth inhibition rate) ([4]; 1.25 mg/L): 5 (90% or greater)
Antifungal index (mycelial growth inhibition rate) ([4]; 2.50 mg/L): 5 (90% or greater)
Antifungal index (mycelial growth inhibition rate) ([5]; 0.16 mg/L): 5 (90% or greater)
Antifungal index (mycelial growth inhibition rate) ([5]; 0.31 mg/L): 5 (90% or greater)
Antifungal index (mycelial growth inhibition rate) ([5]; 0.63 mg/L): 5 (90% or greater)
Antifungal index (mycelial growth inhibition rate) ([5]; 1.25 mg/L): 5 (90% or greater)
Antifungal index (mycelial growth inhibition rate) ([5]; 2.50 mg/L): 5 (90% or greater)
Antifungal index (mycelial growth inhibition rate) ([6]; 0.04 mg/L): 1 (Less than 60%)
Antifungal index (mycelial growth inhibition rate) ([6]; 0.08 mg/L): 1 (Less than 60%)
Antifungal index (mycelial growth inhibition rate) ([6]; 0.16 mg/L): 1 (Less than 60%)
Antifungal index (mycelial growth inhibition rate) ([6]; 0.31 mg/L): 2 (Less than 70% but not less than 60%)
Antifungal index (mycelial growth inhibition rate) ([6]; 0.63 mg/L): 3 (Less than 80% but not less than 70%)
Antifungal index (mycelial growth inhibition rate) ([6]; 1.25 mg/L): 4 (Less than 90% but not less than 80%)
Antifungal index (mycelial growth inhibition rate) ([7]; 0.04 mg/L): 1 (Less than 60%)
Antifungal index (mycelial growth inhibition rate) ([7]; 0.08 mg/L): 3 (Less than 80% but not less than 70%)
Antifungal index (mycelial growth inhibition rate) ([7]; 0.16 mg/L): 4 (Less than 90% but not less than 80%)
Antifungal index (mycelial growth inhibition rate) ([7]; 0.31 mg/L): 4 (Less than 90% but not less than 80%)
Antifungal index (mycelial growth inhibition rate) ([7]; 0.63 mg/L): 5 (90% or greater)
Antifungal index (mycelial growth inhibition rate) ([7]; 1.25 mg/L): 5 (90% or greater)
Antifungal index (mycelial growth inhibition rate) ([8]; 0.04 mg/L): 1 (Less than 60%)
Antifungal index (mycelial growth inhibition rate) ([8]; 0.08 mg/L): 4 (Less than 90% but not less than 80%)
Antifungal index (mycelial growth inhibition rate) ([8]; 0.16 mg/L): 4 (Less than 90% but not less than 80%)
Antifungal index (mycelial growth inhibition rate) ([8]; 0.31 mg/L): 5 (90% or greater)
Antifungal index (mycelial growth inhibition rate) ([8]; 0.63 mg/L): 5 (90% or greater)
Antifungal index (mycelial growth inhibition rate) ([8]; 1.25 mg/L): 5 (90% or greater)
Antifungal index (mycelial growth inhibition rate) ([9]; 0.04 mg/L): 1 (Less than 60%)
Antifungal index (mycelial growth inhibition rate) ([9]; 0.08 mg/L): 1 (Less than 60%)
Antifungal index (mycelial growth inhibition rate) ([9]; 0.16 mg/L): 1 (Less than 60%)
Antifungal index (mycelial growth inhibition rate) ([9]; 0.31 mg/L): 1 (Less than 60%)
Antifungal index (mycelial growth inhibition rate) ([9]; 0.63 mg/L): 1 (Less than 60%)
Antifungal index (mycelial growth inhibition rate) ([9]; 1.25 mg/L): 1 (Less than 60%)

CC1(CCl)CCC(Cc2ccc(Cl)cc2)C1(O)Cn1cncn1 (single isomer, unassigned) [Compound (1-1b), (1,2-cis, 1,5-cis)-5-(4-chlorobenzyl)-2-chloromethyl-2-methyl-1-(1H-1,2,4-triazole-1-ylmethyl)cyclopentanol]
Protective value (%) [1]: 63%
Growth inhibition index [2, 10]: 0 (50% or more)
Growth inhibition index [2, 11]: 4 (Less than 20% but 10% or more)
Growth inhibition index [2, 12]: 4 (Less than 20% but 10% or more)
Necrosis index [3, 10]: 0 (Less than 1%)
Necrosis index [3, 11]: 2 (Less than 20% but not less than 5%)
Necrosis index [3, 12]: 2 (Less than 20% but not less than 5%)
Antifungal index (mycelial growth inhibition rate) ([4]; 0.16 mg/L): 3 (Less than 80% but not less than 70%)
Antifungal index (mycelial growth inhibition rate) ([4]; 0.31 mg/L): 4 (Less than 90% but not less than 80%)
Antifungal index (mycelial growth inhibition rate) ([4]; 0.63 mg/L): 5 (90% or greater)
Antifungal index (mycelial growth inhibition rate) ([4]; 1.25 mg/L): 5 (90% or greater)
Antifungal index (mycelial growth inhibition rate) ([4]; 2.50 mg/L): 5 (90% or greater)
Antifungal index (mycelial growth inhibition rate) ([5]; 0.16 mg/L): 3 (Less than 80% but not less than 70%)
Antifungal index (mycelial growth inhibition rate) ([5]; 0.31 mg/L): 5 (90% or greater)
Antifungal index (mycelial growth inhibition rate) ([5]; 0.63 mg/L): 5 (90% or greater)
Antifungal index (mycelial growth inhibition rate) ([5]; 1.25 mg/L): 5 (90% or greater)
Antifungal index (mycelial growth inhibition rate) ([5]; 2.50 mg/L): 5 (90% or greater)
Antifungal index (mycelial growth inhibition rate) ([6]; 0.04 mg/L): 1 (Less than 60%)
Antifungal index (mycelial growth inhibition rate) ([6]; 0.08 mg/L): 1 (Less than 60%)
Antifungal index (mycelial growth inhibition rate) ([6]; 0.16 mg/L): 2 (Less than 70% but not less than 60%)
Antifungal index (mycelial growth inhibition rate) ([6]; 0.31 mg/L): 3 (Less than 80% but not less than 70%)
Antifungal index (mycelial growth inhibition rate) ([6]; 0.63 mg/L): 4 (Less than 90% but not less than 80%)
Antifungal index (mycelial growth inhibition rate) ([6]; 1.25 mg/L): 5 (90% or greater)
Antifungal index (mycelial growth inhibition rate) ([7]; 0.04 mg/L): 1 (Less than 60%)
Antifungal index (mycelial growth inhibition rate) ([7]; 0.08 mg/L): 3 (Less than 80% but not less than 70%)
Antifungal index (mycelial growth inhibition rate) ([7]; 0.16 mg/L): 4 (Less than 90% but not less than 80%)
Antifungal index (mycelial growth inhibition rate) ([7]; 0.31 mg/L): 5 (90% or greater)
Antifungal index (mycelial growth inhibition rate) ([7]; 0.63 mg/L): 5 (90% or greater)
Antifungal index (mycelial growth inhibition rate) ([7]; 1.25 mg/L): 5 (90% or greater)
Antifungal index (mycelial growth inhibition rate) ([8]; 0.04 mg/L): 3 (Less than 80% but not less than 70%)
Antifungal index (mycelial growth inhibition rate) ([8]; 0.08 mg/L): 4 (Less than 90% but not less than 80%)
Antifungal index (mycelial growth inhibition rate) ([8]; 0.16 mg/L): 5 (90% or greater)
Antifungal index (mycelial growth inhibition rate) ([8]; 0.31 mg/L): 5 (90% or greater)
Antifungal index (mycelial growth inhibition rate) ([8]; 0.63 mg/L): 5 (90% or greater)
Antifungal index (mycelial growth inhibition rate) ([8]; 1.25 mg/L): 5 (90% or greater)
Antifungal index (mycelial growth inhibition rate) ([9]; 0.04 mg/L): 1 (Less than 60%)
Antifungal index (mycelial growth inhibition rate) ([9]; 0.08 mg/L): 1 (Less than 60%)
Antifungal index (mycelial growth inhibition rate) ([9]; 0.16 mg/L): 1 (Less than 60%)
Antifungal index (mycelial growth inhibition rate) ([9]; 0.31 mg/L): 3 (Less than 80% but not less than 70%)
Antifungal index (mycelial growth inhibition rate) ([9]; 0.63 mg/L): 5 (90% or greater)
Antifungal index (mycelial growth inhibition rate) ([9]; 1.25 mg/L): 5 (90% or greater)
